{
  "source": "patent US5011825A",
  "about": "“Peptides influencing diuresis and natriuresis, a process for their preparation, agents containing them, and their use” (Hoechst Aktiengesellschaft, priority 1986, dated 1991)",
  "system": "rat",
  "assay": "Diuretic, natriuretic and kaliuretic action, Experimental Design 1 (anesthetized rats, continuous NaCl infusion, i.v. bolus)",
  "assay_type": "in vivo",
  "details": "dose 1 mg/kg rat i.v. bolus, collection period 90 min",
  "protocol": "A. […]\nExperimental Design 1: The rats were anesthetized with 0.1 ml of 10% strength thiobutabarbital sodium/100 g of body weight i.p. They received an NaCl infusion from 60 min before administration of the substance and continuing during the experiment (2.5 ml of a 0.9% strength NaCl solution .h^-1.0.1 kg^-1 body weight). The test substance was administered as an i.v. bolus in 0.5 ml of a 0.9% strength solution/100 g of body weight.",
  "note": "Where a SMILES comes first, the peptide text is derived from it. [ ]: non-standard residue; d: D form. The star is where a group is joined. tBu = CC(C)(C)*",
  "data": [
    {"smiles": "CC[C@H](C)[C@H](NC(=O)[C@H](CCCNC(=N)N)NC(=O)[C@@H](COC(C)(C)C)NC(=O)[C@@H](NC(=O)[C@@H](N)CCCNC(=N)N)[C@@H](C)CC)C(=O)O", "note": "[H-Arg-Ile-D-Ser(tBu)-Arg-Ile-OH] (H-RI[dS](tBu)RI-OH)", "values": [
      {"measurement": "Urine", "setting": "control 1.267", "result": 0.95, "unit": "mL/kg"},
      {"measurement": "K^+", "setting": "control 29.5", "result": 44.3, "unit": "µmol/kg"},
      {"measurement": "Na^+", "setting": "control 65.2", "result": 87.0, "unit": "µmol/kg"}
    ]}
  ]
}
